Measured values taken from paper PMC3445454, “Broad and Cross-Clade CD4^+ T-Cell Responses Elicited by a DNA Vaccine Encoding Highly Conserved and Promiscuous HIV-1 M-Group Consensus Peptides” (PLoS ONE, 2012).
Read-outs that look alike come from different tables or passages of the source.

Assays:
Assay in all cases: biochemical
[1] = biological target: T1, HLA-DP DPA1*01:03/DPB1*04:01 (Homo sapiens, UniProt P04440+P20036); assay type: binding; details: read-out: Binding capacity/IC50 (nM) DPA1*01:03 DPB1*04:01
T1 sequence (P20036 29-260): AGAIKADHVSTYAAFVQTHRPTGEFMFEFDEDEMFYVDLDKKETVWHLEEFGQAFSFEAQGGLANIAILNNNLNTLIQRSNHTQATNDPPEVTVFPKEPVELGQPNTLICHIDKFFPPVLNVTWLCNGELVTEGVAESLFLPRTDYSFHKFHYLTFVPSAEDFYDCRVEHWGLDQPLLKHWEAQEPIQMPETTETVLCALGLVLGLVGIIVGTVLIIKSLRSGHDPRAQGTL
T1 sequence (P04440 30-258): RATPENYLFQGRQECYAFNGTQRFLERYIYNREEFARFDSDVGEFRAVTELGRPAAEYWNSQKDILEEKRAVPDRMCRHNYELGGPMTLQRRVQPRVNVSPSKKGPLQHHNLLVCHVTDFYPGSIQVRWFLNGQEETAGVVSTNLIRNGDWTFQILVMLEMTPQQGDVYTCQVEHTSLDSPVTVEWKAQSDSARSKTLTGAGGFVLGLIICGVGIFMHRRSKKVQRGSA

[2] = biological target: HLA-DR DRB1*15:01 (Homo sapiens, UniProt P01903+P01911); assay type: binding
[3] = biological target: HLA-DP DPA1*02:01/DPB1*01:01 (Homo sapiens, UniProt P04440+P20036, F191V/F38Y/F64Y/G113D/G114E/K142R/L158P/L37V/M105V/M116V/M62Q/P115A/Q81R/R125K/R223Q/T114A/T199I/T259P)
HLA-DP DPA1*02:01/DPB1*01:01, sequence (P20036 29-260 A42M/M62Q/Q81R/T114A/K142R/L158P/F191V/T259P, other chains not shown): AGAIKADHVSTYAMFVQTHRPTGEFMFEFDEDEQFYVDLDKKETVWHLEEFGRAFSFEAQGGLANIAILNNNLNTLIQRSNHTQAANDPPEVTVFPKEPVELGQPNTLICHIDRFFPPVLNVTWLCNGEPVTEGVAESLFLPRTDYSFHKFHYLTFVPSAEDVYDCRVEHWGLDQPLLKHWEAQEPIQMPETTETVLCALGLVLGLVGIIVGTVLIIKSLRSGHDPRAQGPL

[4] = biological target: HLA-DR DRB1*03:01 (Homo sapiens, UniProt P01903+P01911, A100K/A102G/A103R/A169T/F55Y/I96L/K41T/L162R/M171V/P40S/Q125H/Q178H/Q39Y/R42S/S66N/T106N/T262R/W38E/Y61H); assay type: binding
[5] = biological target: HLA-DR DRB4*01:01 (Homo sapiens, UniProt P01903+P13762, G164S); assay type: binding
[6] = biological target: HLA-DR DRB1*01:01 (Homo sapiens, UniProt P01903+P01911, A100R/D57E/F55L/F60I/F76Y/I96L/L162R/M171V/P40L/Q125E/R42F/V115G/Y59C); assay type: binding
[7] = biological target: HLA-DR DRB1*13:02 (Homo sapiens, UniProt P01903+P01911, A100E/A169T/K41T/L162R/M171V/P40S/Q125H/Q178H/Q39Y/Q99D/R42S/S66N/T262R/V115G/W38E/Y61H); assay type: binding
[8] = biological target: HLA-DR DRB1*08:02 (Homo sapiens, UniProt P01903+P01911, A100R/A103L/A169T/F76Y/H45Y/I96F/K41T/L162R/M171V/P40S/Q125H/Q178H/Q39Y/Q99D/R218S/R42G/S66Y/V115G/W38E); assay type: binding
[9] = biological target: HLA-DR DRB1*10:01 (Homo sapiens, UniProt P01903+P01911, A100R/A169T/D57E/F55L/F60V/F69Y/F76Y/I96L/L162R/M171V/P40V/Q260P/Q39E/Q99R/R195Q/R42F/S149N/S66Y/T210M/V115G/V67A/W38E/Y59R/Y61H); assay type: binding
[10] = biological target: HLA-DR DRB1*09:01 (Homo sapiens, UniProt P01903+P01911, A100R/A103E/D57H/D86V/F55Y/F60I/F76Y/I96F/K127E/L162R/M171V/P40D/Q125H/Q99R/R33Q/R42F/S133A/S66N/T210M/V115G/W38K/Y107V/Y59G/Y89S); assay type: binding
[11] = biological target: T2, HLA-DP DPA1*01:03/DPB1*03:01 (Homo sapiens, UniProt P04440+P20036, A65V/A84D/A85E/E86D/F38Y/G113D/G114E/G40L/I94L/L37V/M105V/M116V/P115A/R125K/T199I); assay type: binding
T2 sequence (P20036 29-260): T1 sequence (P20036 29-260)
T2 sequence (P04440 30-258 L37V/F38Y/G40L/A65V/A84D/A85E/E86D/I94L/M105V/G113D/G114E/P115A/M116V/R125K/T199I): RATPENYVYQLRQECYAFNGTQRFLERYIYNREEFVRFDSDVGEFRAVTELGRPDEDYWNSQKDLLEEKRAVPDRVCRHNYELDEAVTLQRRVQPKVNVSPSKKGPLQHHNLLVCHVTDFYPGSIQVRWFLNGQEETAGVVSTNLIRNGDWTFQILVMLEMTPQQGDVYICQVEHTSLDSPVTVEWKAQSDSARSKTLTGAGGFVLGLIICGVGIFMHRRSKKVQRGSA

[12] = biological target: HLA-DP DPA1*03:01/DPB1*04:02 (Homo sapiens, UniProt P04440+P20036, A42M/A65V/A84D/A85E/L207M/L97S)
[13] = biological target: HLA-DR DRB1*04:01 (Homo sapiens, UniProt P01903+P01911, A100K/A169T/F76Y/I96L/K127E/L162R/M171V/N62H/P40V/Q125Y/R42H/S133A/S149N/S66Y/V115G/V209L/W38E); assay type: binding
[14] = biological target: HLA-DR DRB1*07:01 (Homo sapiens, UniProt P01903+P01911, A100R/A102G/A103Q/D57E/D86V/E43K/F76Y/K127E/L162R/M171V/P40G/Q125H/Q99D/R33Q/R42Y/R54Q/S133A/S66F/T210M/V115G/Y107V/Y59L/Y89S); assay type: binding
[15] = read-out: Binding capacity/IC50 (nM) DRB1*15:01
[16] = read-out: Binding capacity/IC50 (nM) DPA1*01:03 DPB1*03:01

SMILES	IC50 [1] [nM]	IC50 [3] [nM]	IC50 [4] [nM]	IC50 [5] [nM]	IC50 [6] [nM]	IC50 [7] [nM]	IC50 [8] [nM]	IC50 [9] [nM]	IC50 [10] [nM]	IC50 [12] [nM]	IC50 [13] [nM]	IC50 [14] [nM]	IC50 [2, 15] [nM]	IC50 [11, 16] [nM]	other results
CC[C@H](C)[C@H](NC(=O)[C@H](C)NC(=O)[C@@H](N)CCC(=O)O)C(=O)N[C@H](C(=O)N[C@@H](CCCNC(=N)N)C(=O)N[C@H](C(=O)N[C@@H](CC(C)C)C(=O)N[C@@H](CCC(N)=O)C(=O)N[C@@H](CCC(N)=O)C(=O)N[C@@H](CC(C)C)C(=O)N[C@@H](CC(C)C)C(=O)N[C@@H](Cc1ccccc1)C(=O)N[C@H](C(=O)N[C@@H](Cc1c[nH]cn1)C(=O)N[C@@H](Cc1ccccc1)C(=O)N[C@@H](CCCNC(=N)N)C(=O)N[C@H](C(=O)NCC(=O)N[C@@H](CS)C(=O)N[C@@H](CCC(N)=O)C(=O)N[C@@H](Cc1c[nH]cn1)C(=O)N[C@@H](CO)C(=O)N[C@@H](CCCNC(=N)N)C(N)=O)[C@@H](C)CC)[C@@H](C)CC)[C@@H](C)CC)[C@@H](C)CC [vpr(58-80)]	113	2630	14400	475	305	5010	61	170	477	96	361	885	–	–	IC50 [2]: 149 nM; IC50 [11]: 348 nM
CC[C@H](C)[C@H](NC(=O)[C@H](C)NC(=O)[C@H](CCCCN)NC(=O)[C@H](CCCCN)NC(=O)CNC(=O)[C@H](CS)NC(=O)[C@@H](NC(=O)[C@H](CCC(=O)O)NC(=O)[C@@H](NC(=O)[C@H](CC(C)C)NC(=O)[C@@H](NC(=O)[C@H](CCC(N)=O)NC(=O)[C@H](CC(=O)O)NC(=O)[C@H](Cc1ccc(O)cc1)NC(=O)[C@H](CCC(N)=O)NC(=O)[C@H](CCCNC(=N)N)NC(=O)[C@@H](NC(=O)[C@H](CCCCN)NC(=O)[C@@H](NC(=O)[C@@H](N)Cc1ccccc1)[C@@H](C)CC)C(C)C)[C@@H](C)CC)[C@@H](C)CC)[C@@H](C)CC)C(=O)NCC(=O)N[C@H](C(=O)N[C@H](C(N)=O)C(C)C)[C@@H](C)O [protease(53-75)]	452	112	347	–	29	4080	325	62	234	342	675	1770	111	9.4	IC50 ([5]; read-out: Binding capacity/IC50 (nM) DRB4*01:01): 302 nM
CC[C@H](C)[C@H](NC(=O)[C@H](Cc1ccc(O)cc1)NC(=O)CNC(=O)[C@H](CO)NC(=O)[C@H](C)NC(=O)[C@@H](NC(=O)[C@H](Cc1c[nH]cn1)NC(=O)[C@@H](NC(=O)[C@H](C)NC(=O)[C@@H](NC(=O)[C@H](CC(C)C)NC(=O)[C@@H](NC(=O)[C@@H](NC(=O)[C@H](CCCCN)NC(=O)CNC(=O)[C@@H](N)CCC(=O)O)[C@@H](C)CC)[C@@H](C)CC)C(C)C)C(C)C)C(C)C)C(=O)N[C@@H](CCC(=O)O)C(N)=O [integrase(69-85)]	2830	5930	–	56	–	–	–	–	–	212	–	–	146	1990	IC50 ([4]; read-out: Binding capacity/IC50 (nM) DRB1*03:01): 7940 nM; IC50 ([6]; read-out: Binding capacity/IC50 (nM) DRB1*01:01): 0.56 nM; IC50 ([7]; read-out: Binding capacity/IC50 (nM) DRB1*13:02): 17000 nM; IC50 ([8]; read-out: Binding capacity/IC50 (nM) DRB1*08:02): 11 nM; IC50 ([9]; read-out: Binding capacity/IC50 (nM) DRB1*10:01): 4.8 nM; IC50 ([10]; read-out: Binding capacity/IC50 (nM) DRB1*09:01): 58 nM; IC50 ([13]; read-out: Binding capacity/IC50 (nM) DRB1*04:01): 7.6 nM; IC50 ([14]; read-out: Binding capacity/IC50 (nM) DRB1*07:01): 70 nM
